Literature values as cited in US20090233891A1, “Pharmaceutical lotion comprising fluticasone propionate” (GLENMARK GENERICS LTD., priority 2008, published 2009).

CCC(=O)O[C@]1(C(=O)SCF)[C@H](C)C[C@H]2[C@@H]3C[C@H](F)C4=CC(=O)C=C[C@]4(C)[C@@]3(F)[C@@H](O)C[C@@]21C [Fluticasone propionate, S-(fluoromethyl) 6a, 9-difluoro-11β, 17-dihydroxy-16a-methyl-3-oxoandrosta-1,4-diene-17β-carbothioate, 17-propionate]
solubility in 95% ethanol (95% ethanol): slightly soluble
solubility in dimethyl sulfoxide (dimethyl sulfoxide): freely soluble
solubility in dimethylformamide (dimethylformamide): freely soluble
solubility in methanol (methanol): slightly soluble
solubility in water (water): practically insoluble
